# Reference: patent US6302119A, “Low odor permanent waving compositions containing a disulfide” (priority 1999, dated 2001)
# “Also recorded” adds a separate entry of the source.
# Columns and labels:
# [1] = thiol; cited from earlier work
# [2] = cited from earlier work; for odor: permanent wave; for waving performance: compared to TGA where stated
# [3] = in vivo; cited from earlier work
# [4] = gas chromatography; waving compositions; cited from earlier work
# [5] = Odor evaluation by 3-4 panelists of activator, waving composition and hair tresses; conditions: for Odor rating of waving composition (with activator): GMT alone 3.6; for Odor of hair rating: GMT alone 2.8; for Odor rating of activator (GMT + additive): GMT alone 3.8; for odor effect: additive in GMT, concentration not specified
# Description: The disulfide or thiol additive was added in the concentration indicated in Tables 3 and 4, to 200 g of neat glyceryl monothioglycolate (GMr) in a 250 mL beaker.
# Odor evaluation was conducted by 3-4 panelists who rated the odors on a scale of 1-5 where 1=no malodor and 5=extreme malodor. […] To this solution was added two tresses of dark brown, virgin hair (1 inch wide, 6 inches long), that had been washed with a 10% solution of SLS and soaked in synthetic sweate^8 at 37° C. for 17 hr, then lightly rinsed. The beaker containing the GMT activator was covered with foil and was allowed to sit for 5 to 10 minutes prior to odor evaluation. The tresses were then allowed to process in the wave composition for 20 minutes at room temperature in a covered beaker. The tresses were rinsed with tap water, towel blotted, then added to 80 mL of Matrix Opticurl Rebonding Neutralizer and processed for 5 minutes. After rinsing, the damp hair was evaluated for odor.
# 8. Recipe for synthetic sweat: 10 g sodium chloride, 1 g potassium hydrogen phosphate, 0.25 g histidine, lactic acid to adjust pH to 3.2 and water to make 1 L.
# [6] = 0.005 wt % in GMT, scale 1-5, 1 = no malodor
# [7] = 0.005 wt % in GMT, scale 1-5, 1 = no malodor, damp hair after neutralizer
# [8] = 0.005 wt % in GMT, scale 1 = no malodor, 5 = extreme malodor, average of 3-4 panelists
# [9] = 0.01 wt % in GMT, scale 1-5, 1 = no malodor
# [10] = 0.1 wt % in GMT, scale 1-5, 1 = no malodor
smiles,measurement,setting,value
NCCS [Cysteamine],pKa,[1],8.6
same,odor,[2],likened to burnt popcorn or corn chips
"O=C(CS)OCC(O)CO (centres unmarked) [GMT, Glyceryl monothioglycolate]",pKa,[1],7.8
same,skin irritation,[3],causes skin irritation in some people
same,odor,[2],"more pronounced from GMT (glyceryl monothioglycolate) acid waves, than from ATG (ammonium thioglycolate) alkaline waves"
CC(S)C(=O)O (centres unmarked) [Thiolactic acid],toxicology / mildness,[3],milder on the epidermis
same,waving performance,[2],less efficient than TGA
O=C(O)CS [ammonium thioglycolate],hydrogen sulfide in headspace,[4],ppm levels
N[C@@H](CS)C(=O)O [cysteine],skin irritation,[3],is an irritant
same,waving performance,[2],produces weaker curls than TGA
CC(C)CCCCCOC(=O)CSSCC(=O)OCCCCCC(C)C [di-i-octyldithiodiglycolate],odor reduction,[5]; 0.005%,"removed the sulfur odor from GMT without adding the petroleum odor of the disulfide; also recorded: better than those were from the i-octylthioglycolate; also recorded: the waving composition and the hair smell more neutral, and less chemical than the other solutions; also recorded: essentially no odor left on the hair"
same,"panelist preference vs GMT alone, formulation odor and post-perm hair odor","[5]; 0.005% in GMT, duplicate experiments",all panelists preferred the GMT containing 0.005% disulfide compared to GMT alone
same,Odor rating of waving composition (with activator),[5]; [6],2.1
same,Odor of hair rating,[5]; [7],1.1
same,Odor rating of activator (GMT + additive),[5]; [8],2.2
same,odor reduction / odor detected,[5]; 0.01%,comparable odor results; also recorded: petroleum-like sulfur smell of the disulfide itself
same,Odor of hair rating,[5]; [9],1.8
same,Odor rating of waving composition (with activator),[5]; [9],3.0
same,Odor rating of activator (GMT + additive),[5]; [9],2.5
same,Odor of hair rating,[5]; [10],2.8
same,Odor rating of waving composition (with activator),[5]; [10],2.3
same,Odor rating of activator (GMT + additive),[5]; [10],2.5
same,odor effect,[5],reduces the thiol odor associated with a GMT wave in all three categories evaluated
CCCCOC(=O)CSSCC(=O)OCCCC [di-n-butyldithiodiglycolate],Odor rating of waving composition (with activator),[5]; [6],2.0
same,Odor of hair rating,[5]; [7],3.5
same,Odor rating of activator (GMT + additive),[5]; [8],2.0
same,Odor of hair rating,[5]; [9],4
same,Odor rating of waving composition (with activator),[5]; [9],3.8
same,Odor rating of activator (GMT + additive),[5]; [9],2.8
same,odor effect,[5]; listed as Di-butyldithiodiglycolate,effectively lowers odor in the activator and in the waving composition
same,odor effect,[5]; listed as dibutyldithioglycolate,less of an odor reducing effect compared to di-i-octyldithiodiglycolate
same,post-perm odor on hair,[5]; vs original GMT odor,leave a sulfur malodor on the hair that is more disagreeable than the original GMT odor
"CCCCCCCSSCCCCCCC [di-n-heptyldisulfide, di-n-heptyl disulfide]",Odor rating of waving composition (with activator),[5]; [6],5
same,Odor rating of activator (GMT + additive),[5]; [8],5
same,Odor rating of waving composition (with activator),[5]; [9],5
same,Odor rating of activator (GMT + additive),[5]; [9],5
same,odor effect,[5],increased malodor compared to non-disulfide containing formulations
same,odor effect,[5]; listed as diheptyldisulfide,produces an odor itself that is more disagreeable than the GMT odor alone
O=C(O)CS [thioglycolic acid],toxicology / mildness,[3],good toxicology
same,waving performance,[2],good performance
same,odor,[2],unpleasant odor
